The test system of experiment [1] is Raji tumor-bearing nude mice. Description: In vivo vasopermeability / biodistribution study, Raji lymphoma model (Lym-1 immunoconjugates).
Experimental: The Raji lymphoma cell line was used to produce heterotransplants in 6-week-old female nude mice by the subcutaneous injection of a 0.2 ml inoculum consisting of 4 x 10^7 Raji cells and 4 x 10^6 human fetal fibroblast feeder cells in the left thigh. Three days prior to injection, the mice were irradiated with 400 rads using a cesium irradiator to ensure a high take rate of the implanted cells. The tumors were grown for 14-18 days until they grew to approximately 1 cm in diameter.
To test the relative effects of the immunoconjugates on the biodistribution and tumor uptake of Lym-1 or TNT-1 in tumor-bearing mice, separate groups of 4-5 mice were given intravenous injections of 30 µg of antibody alone or antibody conjugate. At 2.5 hr after injection, each group received 50 µCi of ^125I-labeled Lym-1 or TNT-1 F(ab')2 fragment as tracer.
All animals were sacrificed 72 hr later, by sodium pentobarbital overdose, for biodistribution analysis. Various organs, blood, and tumor were removed, weighed, and samples were counted in a gamma counter. For each mouse, data were expressed as tumor:organ ratio (cpm per gram tumor/cpm per gram organ) and percent injected dose/gram (%ID/g).
Each peptide and rhIL-2, as well as their respective immunoconjugates with MAb Lym-1, were assayed for their ability to induce tumor vascular permeability and enhanced antibody uptake in Raji tumor-bearing nude mice.
For experiment [2], the target named is nucleohistones expressed in the nucleus of mammalian cells. Description: paraformaldehyde-acetone-treated cell assay, 125I-labeled F(ab')2.
Experiment [3] concerns the target variant of the HLA-Dr antigen expressed on the cell surface of human B-lymphocytes and malignant lymphomas (on Raji Burkitt's lymphoma cells) (human). Description: live cell radioimmunoassay on Raji cells, 125I-labeled F(ab')2.

Where only a bound is given, the exact number is not on record here.

In the case of “3C: synthetic peptide fragment of IL-2, amino acid sequence 22-58 (SEQ ID NO: 1), permeability enhancing peptide (QMILNGINNYKNPKLTRMLTFKFYMPKKATELKHLQC) [Fragment 3C]”, the “vasopermeability effects of Lym-1/IL-2 chemical conjugate” value in experiment [1] (named peptide tested as vasoconjugate (joined to delivery vehicle, Lym-1), relative to IL-2 immunoconjugate) is listed as “approximately 100%”. Besides, the “Vasopermeability (%Lym-1/IL-2)” value in experiment [1] (tumor vascular permeability and enhanced antibody uptake in Raji tumor-bearing nude mice, relative to Lym-1/IL-2, 30-40 pM of peptide per assay) was determined as 0 %Lym-1/IL-2. “125I-labeled F(ab')2 fragment of murine monoclonal antibody TNT-1 (IgG2a)” showed an immunoreactivity in experiment [2] greater than 80%.

B1: 125I-labeled F(ab')2 fragment of murine monoclonal antibody Lym-1 (IgG2a) (antibody, from another filing, V domains shown)
VH: QLKESGPGLVAPSQSLSITCTISGFSLTSYGVHWVRQPPGKGLEWLVVIWSDGSTTYNSALKSRLSISKDNSKSQVFLKMNSLQTDDTAIYYCASHYGSTLAFASWGHGTLVTVSA
VL: DIQMTQSPASLSASVGETVTIICRASVNIYSYLAWYQQKQGKSPQLLVYNAKILAEGVPSRFSGSGSGTQFSLKINSLQPEDFGSYYCQHHYGTFTFGSGTKLEIK
B1 had a percent bound (immunoreactivity) in experiment [3] of 80%.

Source of the values: EP0931836B1, “Vasopermeability enhancing peptide of human interleukin-2 and immunoconjugates thereof” (priority 1998, dated 2004).
